Values belong to the compound of their own block, whether it stands above or below them.
Columns and labels:
Dipeptidyl peptidase 4 = Dipeptidyl peptidase 4 (Homo sapiens, UniProt P27487); test: In vitro for inhibition of Dipeptidylpeptidase IV.
Dipeptidyl peptidase 2 = Dipeptidyl peptidase 2 (Homo sapiens, UniProt Q9UHL4); test: Compound was tested in vitro for inhibition of Dipeptidylpeptidase II
[1] = molecular target: T1, Prolyl endopeptidase (Homo sapiens) (UniProt P48147); test: (§1) Compound was tested in vitro for inhibition of Prolyl endopeptidase; conditions: concentration not given here
T1 sequence (whole entry): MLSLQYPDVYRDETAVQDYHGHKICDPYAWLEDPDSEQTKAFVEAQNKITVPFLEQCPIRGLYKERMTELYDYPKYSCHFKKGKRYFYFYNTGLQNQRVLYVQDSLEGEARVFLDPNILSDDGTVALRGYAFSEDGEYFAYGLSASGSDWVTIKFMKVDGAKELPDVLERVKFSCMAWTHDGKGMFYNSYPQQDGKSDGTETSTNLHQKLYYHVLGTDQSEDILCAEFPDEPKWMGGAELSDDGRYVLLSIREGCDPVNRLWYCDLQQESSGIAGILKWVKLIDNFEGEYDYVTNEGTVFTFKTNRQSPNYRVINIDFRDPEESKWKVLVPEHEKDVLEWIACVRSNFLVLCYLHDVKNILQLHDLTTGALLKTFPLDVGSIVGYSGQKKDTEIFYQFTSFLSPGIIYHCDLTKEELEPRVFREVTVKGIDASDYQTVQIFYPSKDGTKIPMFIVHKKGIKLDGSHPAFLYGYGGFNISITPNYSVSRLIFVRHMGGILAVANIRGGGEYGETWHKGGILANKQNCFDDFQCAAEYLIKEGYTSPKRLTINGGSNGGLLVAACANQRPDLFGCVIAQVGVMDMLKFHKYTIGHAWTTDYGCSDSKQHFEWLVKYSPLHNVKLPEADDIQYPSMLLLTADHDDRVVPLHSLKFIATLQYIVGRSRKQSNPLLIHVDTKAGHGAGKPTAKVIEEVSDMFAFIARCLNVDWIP

Prolyl endopeptidase = molecular target: T2, Prolyl endopeptidase (Homo sapiens, UniProt P48147); test: as §1
T2 sequence (P48147 whole entry): T1 sequence (whole entry)

Dipeptidyl peptidase 4, sequence (P27487 whole entry): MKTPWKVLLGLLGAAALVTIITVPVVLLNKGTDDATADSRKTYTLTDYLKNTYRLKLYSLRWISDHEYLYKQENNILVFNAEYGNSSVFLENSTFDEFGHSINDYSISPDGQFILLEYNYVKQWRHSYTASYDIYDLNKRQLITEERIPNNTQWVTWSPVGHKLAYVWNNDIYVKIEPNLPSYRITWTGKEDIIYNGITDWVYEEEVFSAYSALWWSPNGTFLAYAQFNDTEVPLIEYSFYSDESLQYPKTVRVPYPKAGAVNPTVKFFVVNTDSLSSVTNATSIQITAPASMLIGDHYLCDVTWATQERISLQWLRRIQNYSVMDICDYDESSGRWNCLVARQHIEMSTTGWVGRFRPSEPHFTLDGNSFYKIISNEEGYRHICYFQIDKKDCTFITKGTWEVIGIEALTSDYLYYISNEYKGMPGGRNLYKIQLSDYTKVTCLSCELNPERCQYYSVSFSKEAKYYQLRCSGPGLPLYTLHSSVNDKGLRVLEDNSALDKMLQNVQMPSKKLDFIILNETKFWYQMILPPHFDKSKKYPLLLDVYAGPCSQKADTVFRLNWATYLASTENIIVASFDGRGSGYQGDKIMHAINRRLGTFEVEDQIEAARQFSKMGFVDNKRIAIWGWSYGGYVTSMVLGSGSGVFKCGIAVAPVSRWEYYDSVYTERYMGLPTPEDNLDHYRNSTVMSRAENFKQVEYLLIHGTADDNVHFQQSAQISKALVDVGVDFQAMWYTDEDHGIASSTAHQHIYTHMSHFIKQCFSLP

SMILES: N[C@@H](Cc1c[nH]cn1)C(=O)N1CCC[C@H]1B(O)O
IC50 (Dipeptidyl peptidase 4): 17000 nM

SMILES: O=C([C@@H]1CCN1)N1CCC[C@H]1B(O)O
IC50 (Dipeptidyl peptidase 4): 250 nM

SMILES: N[C@@H](Cc1ccc(O)cc1)C(=O)N1CCC[C@H]1B(O)O
IC50 (Dipeptidyl peptidase 4): 32 nM

SMILES: NCCCC[C@H](N)C(=O)N1CCC[C@H]1B(O)O
IC50 (Dipeptidyl peptidase 4): 95 nM

SMILES: CC(C)(N)C(=O)N1CCC[C@H]1B(O)O
IC50 (Dipeptidyl peptidase 4): 30000 nM

SMILES: O=C([C@@H]1CCCN1)N1CCC[C@H]1B(O)O
IC50 (Dipeptidyl peptidase 2): 770 nM
IC50 (Dipeptidyl peptidase 4): 20 nM
inhibition [1]: 63%

SMILES: NCC(=O)N1CCC[C@H]1B(O)O
IC50 (Dipeptidyl peptidase 4): 16000 nM

SMILES: N[C@H](C(=O)N1CCC[C@H]1B(O)O)c1ccccc1
IC50 (Dipeptidyl peptidase 4): 63 nM

SMILES: N[C@@H](Cc1ccccc1)C(=O)N1CCC[C@H]1B(O)O
IC50 (Dipeptidyl peptidase 4): 70 nM

Next, values leading:

IC50 (Dipeptidyl peptidase 4): 25 nM
SMILES: CC[C@H](C)[C@H](N)C(=O)N1CCC[C@H]1B(O)O

IC50 (Prolyl endopeptidase): 6000 nM
IC50 (Dipeptidyl peptidase 2): 730 nM
IC50 (Dipeptidyl peptidase 4): 190 nM
SMILES: C[C@@H](O)[C@H](N)C(=O)N1CCC[C@H]1B(O)O

IC50 (Dipeptidyl peptidase 2): 60 nM
SMILES: C[C@H](N)C(=O)N1CCC[C@H]1B(O)O

IC50 (Dipeptidyl peptidase 4): 44 nM
SMILES: CC(C)C[C@H](N)C(=O)N1CCC[C@H]1B(O)O

From ChEMBL document CHEMBL1129318, “Structure-activity relationships of boronic acid inhibitors of dipeptidyl peptidase IV. 1. Variation of the P2 position of Xaa-boroPro dipeptides” (J Med Chem, 1996)
